From PubChem BioAssay (NCI) come the findings set out here.

Among the test systems are SK-OV-3 ovarian; BT-549 breast; HS 578T breast; UACC-257 melanoma; CAKI-1 renal; SK-MEL-2 melanoma; MDA-MB-435; TK-10 renal; SR leukemia; RXF 393 renal.
Common to all, as to assay: DTP human tumour cell line panel, 48 h

Molecules are shown by their SMILES.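 Method: 48-hour compound exposure of cells in 96-well plates, five concentrations, linear interpolation of endpoints. GI50 = concentration required for 50% inhibition of growth. TGI is the concentration that stops growth completely.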

On to `CN(C)Cc1ccc(-c2cc3onc(-c4ccccc4)c3c(=O)n2C)cc1`, for which the TGI (usually the concentration at which net growth stops) with SK-OV-3 ovarian is more than 100 µM; with BT-549 breast, more than 100 µM; in the assay with HS 578T breast, 46.2 µM; with UACC-257 melanoma, 35.6 µM; with CAKI-1 renal, more than 100 µM; in the assay on SK-MEL-2 melanoma, 78.8 µM. Moreover, the TGI in the assay on MDA-MB-435 was found to be 59.8 µM; with TK-10 renal, 53.1 µM; in the assay with SR leukemia it was 34 µM.
As for `C=CC(=O)N1CCC(c2ccc(C(N)=O)c(-c3ccc(Oc4ccccc4)cc3)n2)CC1`, the GI50 (usually the concentration giving 50% growth inhibition) is 23.4 µM in the assay on SK-OV-3 ovarian; 22.7 µM in the assay on BT-549 breast; 12.5 µM in the assay on RXF 393 renal; 37.2 µM in the assay with HS 578T breast; 27.9 µM in the assay on UACC-257 melanoma; 15.8 µM in the assay on CAKI-1 renal. In addition, the GI50 is 27.1 µM in the assay on SK-MEL-2 melanoma, 29.1 µM with MDA-MB-435, 19.2 µM with TK-10 renal and 28 µM in the assay with SR leukemia. Also, the TGI with SK-OV-3 ovarian is more than 100 µM; in the assay with BT-549 breast, 95.4 µM; with RXF 393 renal, 53.6 µM; in the assay on HS 578T breast it was more than 100 µM; in the assay on UACC-257 melanoma, more than 100 µM; in the assay with CAKI-1 renal it was more than 100 µM. For the same compound, the TGI in the assay with SK-MEL-2 melanoma is more than 100 µM; with MDA-MB-435 it was more than 100 µM; in the assay on TK-10 renal, 99.4 µM; in the assay with SR leukemia, more than 100 µM.
In the case of `COc1ccc(-c2cc(=O)n(-c3nc4ccccc4[nH]3)[nH]2)cc1OC`, the GI50 with SK-OV-3 ovarian was 35.3 µM; with BT-549 breast, 23.7 µM; in the assay with RXF 393 renal it was 1.24 µM; with HS 578T breast, 4 µM; with UACC-257 melanoma, 6.4 µM; in the assay with CAKI-1 renal it was 4.79 µM. The GI50 with SK-MEL-2 melanoma is 4.77 µM; in the assay with MDA-MB-435, 3.87 µM; in the assay on SR leukemia, 3.85 µM. In addition, the TGI in the assay with SK-OV-3 ovarian was more than 100 µM; in the assay on BT-549 breast, more than 100 µM; in the assay on RXF 393 renal, 11.9 µM; in the assay on HS 578T breast it was 66.6 µM; with UACC-257 melanoma, 61 µM; in the assay with CAKI-1 renal it was more than 100 µM. Also, the TGI in the assay on SK-MEL-2 melanoma is 23.6 µM; in the assay on MDA-MB-435, more than 100 µM; in the assay on SR leukemia, more than 100 µM.
For `C=C1C(=O)O[C@H]2[C@H]1CC/C(COC(=O)CCCCCC(=O)OC/C1=C/CC[C@@]3(C)O[C@H]3[C@H]3OC(=O)C(=C)[C@@H]3CC1)=C\CC[C@@]1(C)O[C@@H]21`, the GI50 in the assay with SK-OV-3 ovarian was 12 µM; in the assay with BT-549 breast, 1.44 µM; in the assay with RXF 393 renal, 1.1 µM; with HS 578T breast, 2.72 µM; in the assay with UACC-257 melanoma, 1.93 µM; with SK-MEL-2 melanoma it was 5.17 µM. Further, the GI50 in the assay on MDA-MB-435 is 2.58 µM; in the assay on TK-10 renal it was 2.58 µM; with SR leukemia it was 0.336 µM. In addition, the TGI in the assay on SK-OV-3 ovarian was 31 µM; with BT-549 breast, 3.02 µM; in the assay on RXF 393 renal it was 2.41 µM; in the assay on HS 578T breast, 22 µM; in the assay on UACC-257 melanoma, 5.63 µM; in the assay on SK-MEL-2 melanoma, 21.2 µM. For the same compound, the TGI with MDA-MB-435 is 8.92 µM; with TK-10 renal, 5.7 µM; in the assay on SR leukemia, 5.58 µM.
`COc1c(C(C)=O)c(OCCCCOc2c(C(C)=O)c(OC)c3ccoc3c2OC)c(OC)c2occc12`: the GI50 with SK-OV-3 ovarian was more than 100 µM; in the assay on BT-549 breast, 1.61 µM; in the assay with HS 578T breast, more than 100 µM; in the assay on CAKI-1 renal it was 3.3 µM; in the assay on SK-MEL-2 melanoma, 2.76 µM; in the assay with MDA-MB-435 it was 2.14 µM. The GI50 in the assay with TK-10 renal was more than 23.4 µM; in the assay with SR leukemia, 0.258 µM. For the same compound, the TGI in the assay with SK-OV-3 ovarian is more than 100 µM; with BT-549 breast, 5.22 µM; in the assay on HS 578T breast, more than 100 µM; with CAKI-1 renal it was more than 100 µM; in the assay with SK-MEL-2 melanoma it was more than 100 µM; in the assay on MDA-MB-435 it was more than 100 µM. For the same compound, the values for the TGI with TK-10 renal and with SR leukemia were more than 100 µM and 7.72 µM, respectively.
Regarding `COc1cc(/C=C/c2ccc(C)cc2)cc(OC)c1OC`, the total growth inhibition concentration (TGI) in the assay with SK-OV-3 ovarian is 39 µM; in the assay with BT-549 breast, 19 µM; in the assay with HS 578T breast it was 9.71 µM; with UACC-257 melanoma, 31.5 µM; in the assay with CAKI-1 renal it was more than 55.2 µM; in the assay with SK-MEL-2 melanoma, more than 31.6 µM. Besides, the TGI in the assay on MDA-MB-435 came out at 3.14 µM; in the assay with TK-10 renal, 18 µM; in the assay with SR leukemia, 16.6 µM.
Regarding `COc1ccc(-c2c(C)c(C(=O)O)nc(-c3ccc4c(O)c(OC)c5c(c4n3)=NC(C)(C)N=5)c2N)c(O)c1OC`, the TGI was 65.6 µM in the assay with SK-OV-3 ovarian; 82.7 µM with BT-549 breast; 51.7 µM in the assay with RXF 393 renal; more than 100 µM with HS 578T breast; 98.4 µM with UACC-257 melanoma; 41.4 µM in the assay on SK-MEL-2 melanoma. Further, the TGI was found to be 30.7 µM in the assay with MDA-MB-435, 72.7 µM with TK-10 renal and 1.94 µM in the assay with SR leukemia.
In the case of `O=C(O)C(Cc1cnc[nH]1)N1C(=O)c2ccccc2C1=O` (configuration not stated), the TGI in the assay on BT-549 breast, with RXF 393 renal, in the assay on HS 578T breast, in the assay with UACC-257 melanoma, with CAKI-1 renal and with SK-MEL-2 melanoma was more than 100 µM each time. The TGI in the assay on MDA-MB-435, in the assay on TK-10 renal and with SR leukemia was more than 100 µM in each case.
Turning to `Cc1ccc(/C=C(\C#N)c2cc3ccccc3n2C)cc1`, the GI50 in the assay on SK-OV-3 ovarian is more than 100 µM; with BT-549 breast it was 0.742 µM; with RXF 393 renal, 0.172 µM; in the assay on HS 578T breast, 0.448 µM; in the assay with UACC-257 melanoma, more than 100 µM; in the assay with CAKI-1 renal it was 0.406 µM. The values for the GI50 in the assay with MDA-MB-435, with TK-10 renal and in the assay with SR leukemia were 0.0502 µM, more than 100 µM and 0.264 µM, respectively. Moreover, the TGI in the assay with SK-OV-3 ovarian is more than 100 µM; in the assay with BT-549 breast, more than 26.7 µM; in the assay on RXF 393 renal, 0.565 µM; in the assay with HS 578T breast, more than 100 µM; with UACC-257 melanoma it was more than 100 µM; in the assay on CAKI-1 renal it was more than 100 µM. Also, the TGI was 0.334 µM in the assay with MDA-MB-435, more than 100 µM in the assay with TK-10 renal and more than 100 µM with SR leukemia.
Take `COc1ccccc1/C=C1\COc2ccc(-c3ccccc3)cc2C1=O`: the GI50 with SK-OV-3 ovarian was 3.7 µM; with BT-549 breast, 1.55 µM; with HS 578T breast, 2.75 µM; with CAKI-1 renal, 4.74 µM; in the assay with SK-MEL-2 melanoma, 3.82 µM; with MDA-MB-435, 2.11 µM. In addition, the figures for the GI50 in the assay on TK-10 renal and in the assay with SR leukemia were 2.64 µM and 1.31 µM, respectively. Also, the TGI was more than 100 µM with SK-OV-3 ovarian; 4.89 µM in the assay with BT-549 breast; 7.29 µM with HS 578T breast; more than 100 µM in the assay with CAKI-1 renal; 22.1 µM in the assay with SK-MEL-2 melanoma; more than 100 µM with MDA-MB-435. The TGI with TK-10 renal was 7.91 µM; in the assay with SR leukemia, more than 100 µM.
